For data set [1], the target named is T1, total cholinesterase (ChE) (Rattus norvegicus, UniProt P37136).
T1 sequence (P37136 32-614): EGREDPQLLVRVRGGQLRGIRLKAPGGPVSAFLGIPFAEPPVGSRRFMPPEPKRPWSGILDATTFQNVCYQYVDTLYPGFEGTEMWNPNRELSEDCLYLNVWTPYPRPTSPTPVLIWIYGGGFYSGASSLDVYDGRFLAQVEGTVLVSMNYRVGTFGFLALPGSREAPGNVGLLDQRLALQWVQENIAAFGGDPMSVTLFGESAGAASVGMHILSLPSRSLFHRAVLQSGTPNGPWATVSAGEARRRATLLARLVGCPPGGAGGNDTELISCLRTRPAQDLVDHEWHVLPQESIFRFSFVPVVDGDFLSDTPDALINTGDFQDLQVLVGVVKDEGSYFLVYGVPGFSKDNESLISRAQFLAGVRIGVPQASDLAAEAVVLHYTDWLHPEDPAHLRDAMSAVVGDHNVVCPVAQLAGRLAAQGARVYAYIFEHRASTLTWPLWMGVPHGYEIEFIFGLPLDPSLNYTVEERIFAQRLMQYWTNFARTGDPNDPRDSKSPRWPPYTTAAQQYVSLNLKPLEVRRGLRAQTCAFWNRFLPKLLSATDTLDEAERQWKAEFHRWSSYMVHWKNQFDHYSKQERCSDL
The experiment in a line: Total cholinesterase inhibition in rat brain homogenates (Ellman). It counts as biochemical. As to the method:
Cholinesterase activity was determined in rat brain homogenate following incubation with varying concentrations of the multifunctional pro-chelators of the invention (also referred to herein as “carbamates”).
Ellman's colorimetric method was adapted for determination of total cholinesterase (ChE) and butyrylcholinesterase (BuChE) activities in rat brain homogenates. Brain tissue from adult Wistar rats was homogenized at 2% w/v (or 10% w/v, for BuChE) in 0.1 M sodium phosphate buffer, pH 7.4, with added NaCl 58.5 g/l and Triton X-100 0.05% v/v. Aliquots of homogenate (20 μl) were incubated with the test compounds for designed time intervals in phosphate buffer pH 7.4, before addition of 5,5′-dithiobis(2-nitrobenzoic) acid and either 1 mM acetylthiocholine iodide or 10 mM butyrylthiocholine iodide (Sigma, St. Louis, Mo.). The reaction was run at 37° C. in a final volume of […] in 96-well microplates and was followed at 412 nm for 5 min with a plate reader. In every experiment, cholinesterase-independent (nonspecific) substrate hydrolysis was determined by including one experimental group treated with tacrine 30 μM. Appropriate tissue and reagent blanks were also included. Reaction velocities were determined in three or four replicates per condition; these were averaged and expressed as percent activity relative to control (solvent), after subtracting the rate of nonspecific hydrolysis.
The results are the mean SEM, n=3 in triplicates. ND—not determined.
For orientation: Ellman's reagent forms a yellow product with free thiols.

The target of another data set is AChE (Homo sapiens, UniProt P22303). The experiment in a line: Conversion of pro-chelator by AChE into active chelator (UV-vis and MS of extract). Format: biochemical. The note with it: extract from a solution of AChE titrated with metal salts. As to the method: When ZnCl2, or CuSO4 were titrated into the extract, two new bands at around 365 nm or 375 nm appeared, corresponding to the formation of […], respectively. […] This finding was reinforced by mass spectrometry analysis of the extract, which gave a value of m/z 227.22, corresponding to m/z of [M30+H]^+.
When FeCl3 or FeSO4 were titrated to an extract from a solution of AChE into which compound 23 was added, new bands at around 460 nm and 590 nm appeared exactly matching the absorption of HLA20−Fe in FIG. 2A. Titration of CuSO4 or ZnCl2 to the extract introduced new bands at around 370 nm or 360 nm, corresponding to the absorption of the complexes […], respectively.

Data set [2] relates to human SH-SY5Y neuroblastoma cells. Put plainly: MTT cell viability assay in SH-SY5Y cells. The note with it: MTT after 48 h incubation. It counts as cell-based. On the procedure: Cell culture. Human neuroblastoma SH-SY5Y cells were obtained from American Type Culture Collection (Rockville, Md., USA). Cells were routinely cultured in MEM-Eagle/F-12(HAM) (1:1), containing 10% FCS and a mixture of 2% sodium bicarbonate, 1% penicillin/streptomycin/nystatin and 1% sodium pyruvate. Cell cultures were incubated at 37° C. in a humid 5% CO2-95% air environment.
Twenty-four hours after attachment of the SH-SY5Y cells, the medium was replaced with DMEM containing 0.1% BSA. The test compounds were added to the cells after 1 h of incubation. After 24 h incubation, the cells were subjected to MTT test as previously described (Gassen et al., 1998). The absorption was determined in a Perkin-Elmer Dual Wavelength Eliza-Reader at λ=570/650 nm after automatic subtraction of background readings. The results are expressed as percentage of the untreated control.
The effect of the iron chelators M30 and HLA20 versus that of the pro-chelators 13 and 23, on viability of human SH-SY5Y cells was tested. Human SH-SY5Y neuroblastoma cells were plated in 100-mm culture dishes and cultured in DMEM (4,500 mg/l glucose), containing 10% FCS (fetal calf serum, Bet Haemek, Israel), and 1% of a mixture of penicillin/streptomycin/nystatin. When cells reached the required confluence, they were detached and re-cultured in microtiter plates (96 wells) pre-coated with collagen ([…]), in DMEM with 10% of fetal calf serum (0.5×10^4 cells/well). Cell viability was tested by the 3-(4,5-dimethylthiazol-2-yl)-2,5-diphenyltetrazolium (MTT) assays after 48 h incubation.

The structures appear in SMILES notation. Where two headings read alike, the source gives them in different places.

Sequence of AChE (P22303 32-614): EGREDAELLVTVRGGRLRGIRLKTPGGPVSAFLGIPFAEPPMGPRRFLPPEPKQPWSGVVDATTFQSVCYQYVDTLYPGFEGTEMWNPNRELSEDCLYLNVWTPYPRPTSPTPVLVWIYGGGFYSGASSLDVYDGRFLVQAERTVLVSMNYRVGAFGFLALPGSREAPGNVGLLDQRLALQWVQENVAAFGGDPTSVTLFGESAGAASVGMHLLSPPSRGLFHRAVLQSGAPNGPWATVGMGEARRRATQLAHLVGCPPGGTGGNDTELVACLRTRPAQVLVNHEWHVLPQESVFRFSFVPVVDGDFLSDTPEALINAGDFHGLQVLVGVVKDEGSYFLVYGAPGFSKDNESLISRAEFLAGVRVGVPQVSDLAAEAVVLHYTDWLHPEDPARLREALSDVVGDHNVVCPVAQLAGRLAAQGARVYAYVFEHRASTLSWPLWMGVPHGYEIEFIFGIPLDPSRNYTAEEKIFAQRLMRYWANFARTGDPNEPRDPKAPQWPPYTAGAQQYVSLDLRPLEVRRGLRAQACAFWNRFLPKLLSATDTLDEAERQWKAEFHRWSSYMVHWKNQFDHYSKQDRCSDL

One may read the IC50 as the concentration that gives 50% inhibition. Low values mean greater potency, high ones weaker potency. Consider `C#CCN(C)Cc1ccc(OC(=O)N(C)CC)c2ncccc12` [Compound 3, 5-((methyl(propargyl)amino)methyl)quinolin-8-yl ethyl(methyl)carbamate], for which, in data set [1] (rat brain homogenates, mean SEM, n=3 in triplicates), it took 9.8 µM to reach half-maximal inhibition (IC50). In other words, the single-digit micromolar range.
As a reminder, the cell viability is a per cent measure of how many cells are alive, often set against a control. As to `C#CCN(C)Cc1ccc(OC(=O)N2CCN(Cc3ccccc3)CC2)c2ncccc12` [Compound 13, 5-((methyl(propargyl)amino)methyl)quinolin-8-yl 4-benzyl piperazine-1-carboxylate], the “conversion by AChE to active chelator” value at AChE is reported as “converted by AChE back into M30”. Moreover, the cell viability result in data set [2] (10 μM) is given as “similar”; in data set [2] (25 μM), “significantly higher”.
On to `C#CCC1CCN(Cc2ccc(OC(=O)N(C)C)c3ncccc23)CC1` [Compound 23, 5-((4-(propargyl)piperidin-1-yl)methyl)quinolin-8-yl dimethylcarbamate], for which, on AChE, the “conversion by AChE to active chelator” value is “converted compound 23 back into HLA20”. For the same molecule, the cell viability result in data set [2] (10 μM) is listed as “over 75%”; in data set [2] (25 μM) it was “over 75%”; in data set [2] (50 μM) it was 40%.
`C#CCN(C)Cc1ccc(O)c2ncccc12` [M30, reference compound] showed an IC50 in data set [1] of 114 µM. In addition, the cell viability result in data set [2] (10 μM) is listed as “similar”.

The values are drawn from patent US8802675B2, “Neuroprotective multifunctional compounds and pharmaceutical compositions comprising them” (priority 2009, dated 2014).
